# Measurements: patent US11584747B2, “Substituted pyridopyrimidinonyl compounds useful as T cell activators” (BRISTOL-MYERS SQUIBB COMPANY, priority 2019, dated 2023)
# pEC50, pIC50: −log10 of the molar value. Where two headings read alike, the source gives them in different places.
# Tests used:
# [1] = tested on: human venous whole blood (IFN-γ); assay: Human whole blood IFN-γ assay; assay type: cell-based
# Description: Human venous whole blood (22.5 μL per well), obtained from healthy donors, was pre-treated with compounds for one hour at 37° C. in a humidified 95% air/5% CO2 incubator. The blood was stimulated with 2.5 μL anti-human CD3 and anti-CD28 mAb at a final concentration of 1 μg/mL each for 24 hours at 37° C. IFN-γ in the supernatants was measured using AlphLISA kit (Cat #AL217).
# human DGKζ = human DGKζ (Homo sapiens (Human), UniProt Q13574); assay: DGKζ LIPGLO assay (extruded liposome substrate, ADP-Glo luminescence); assay type: biochemical
# human DGKζ, sequence (Q13574 other isoform, or with tags, fused parts or gaps): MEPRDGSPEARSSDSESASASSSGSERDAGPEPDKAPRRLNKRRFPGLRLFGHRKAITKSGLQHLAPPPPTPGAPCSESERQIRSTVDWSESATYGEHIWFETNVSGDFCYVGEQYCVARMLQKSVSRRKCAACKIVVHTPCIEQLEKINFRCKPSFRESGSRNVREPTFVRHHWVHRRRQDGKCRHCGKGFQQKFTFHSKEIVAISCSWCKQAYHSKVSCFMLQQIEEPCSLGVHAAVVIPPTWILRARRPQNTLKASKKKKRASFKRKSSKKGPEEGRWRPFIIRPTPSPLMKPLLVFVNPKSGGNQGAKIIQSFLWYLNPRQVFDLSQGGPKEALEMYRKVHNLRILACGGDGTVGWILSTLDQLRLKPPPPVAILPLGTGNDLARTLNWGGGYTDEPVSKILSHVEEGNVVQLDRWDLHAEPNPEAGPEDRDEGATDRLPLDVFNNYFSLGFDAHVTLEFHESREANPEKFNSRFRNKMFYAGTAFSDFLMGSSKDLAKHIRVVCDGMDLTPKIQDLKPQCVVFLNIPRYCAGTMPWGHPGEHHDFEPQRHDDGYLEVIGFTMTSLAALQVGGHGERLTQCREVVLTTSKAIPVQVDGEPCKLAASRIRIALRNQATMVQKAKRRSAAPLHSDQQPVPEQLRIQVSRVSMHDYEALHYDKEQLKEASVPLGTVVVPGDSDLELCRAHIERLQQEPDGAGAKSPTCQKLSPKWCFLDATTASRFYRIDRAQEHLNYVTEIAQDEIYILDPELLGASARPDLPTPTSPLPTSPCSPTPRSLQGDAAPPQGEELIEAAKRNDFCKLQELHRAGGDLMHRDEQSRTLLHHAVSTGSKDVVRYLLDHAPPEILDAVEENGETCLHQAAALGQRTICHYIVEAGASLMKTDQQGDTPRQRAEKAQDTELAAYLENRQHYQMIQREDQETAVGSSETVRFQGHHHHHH
# human DGKα [2] = target: T1, human DGKα (Homo sapiens (Human), UniProt P23743); assay: DGKα ADPGLO assay (detergent/lipid micelle substrate); assay type: biochemical; settings: truncated DGK alpha; read-out: DGK alpha ADPGLO (Truncated) IC50
# T1 sequence (P23743 whole entry, looked up, the tested form may be a part): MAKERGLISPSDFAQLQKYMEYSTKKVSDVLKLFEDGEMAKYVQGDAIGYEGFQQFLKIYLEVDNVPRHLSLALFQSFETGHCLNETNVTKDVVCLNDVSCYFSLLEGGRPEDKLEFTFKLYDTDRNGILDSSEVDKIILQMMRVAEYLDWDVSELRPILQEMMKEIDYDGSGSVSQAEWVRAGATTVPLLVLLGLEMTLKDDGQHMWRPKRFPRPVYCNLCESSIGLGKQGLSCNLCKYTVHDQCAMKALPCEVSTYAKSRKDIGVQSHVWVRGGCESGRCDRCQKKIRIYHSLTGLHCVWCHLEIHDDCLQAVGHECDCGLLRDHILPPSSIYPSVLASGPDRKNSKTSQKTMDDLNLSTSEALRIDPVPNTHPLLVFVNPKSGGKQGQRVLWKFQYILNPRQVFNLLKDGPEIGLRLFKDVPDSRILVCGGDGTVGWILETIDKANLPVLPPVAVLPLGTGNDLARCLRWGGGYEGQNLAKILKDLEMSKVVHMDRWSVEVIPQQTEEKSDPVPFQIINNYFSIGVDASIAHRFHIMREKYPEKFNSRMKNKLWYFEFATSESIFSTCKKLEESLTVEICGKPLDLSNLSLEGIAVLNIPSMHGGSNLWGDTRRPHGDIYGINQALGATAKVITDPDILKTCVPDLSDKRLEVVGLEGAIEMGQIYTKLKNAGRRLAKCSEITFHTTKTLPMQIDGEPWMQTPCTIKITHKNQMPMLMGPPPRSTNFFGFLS
# Description: DGK Alpha ADPGLO (Truncated) IC50 (uM)
# The detergent/lipid micelle was prepared by combining 15 g phosphatidylserine (Avanti 840035P) and 1 g diacylglycerol (8008110) and dissolving into 150 mL chloroform in a 2 L round bottom flask. Chloroform was removed under high vacuum by rotary evaporation. […] The lipid/detergent solution was split into 5 mL aliquots and stored at −80° C.
# human DGKα [3] = target: T1, human DGKα; assay: DGKα LIPGLO assay (extruded liposome substrate, ADP-Glo luminescence); assay type: biochemical
# [4] = whole blood, normalized to 3 μM reference compound as 100% activation, read-out: IFN-γ Whole Blood Normalized EC50
# [5] = liposome assay, read-out: DGK zeta LIPGLO IC50
# [6] = liposome assay, read-out: DGK alpha LIPGLO IC50
# [7] = Homo sapiens, whole blood, normalized to 3 μM reference compound as 100% activation, read-out: IFN-γ Whole Blood Normalized EC50
# [8] = liposome (LIPGLO) assay, read-out: DGK zeta (liposome assay) IC50
# [9] = liposome (LIPGLO) assay, read-out: DGK alpha (liposome assay) IC50
Structure (SMILES),pIC50 (human DGKζ; [5]),pIC50 (human DGKα [3]; [6]),"pEC50 [1, 4]",other results
"CC[C@H]1CN(C(C)c2ccc(C(F)(F)F)cc2F)[C@H](CC)CN1c1nc(=O)n(C)c2ccc(C#N)nc12 (single isomer, unassigned) [Example 25]",5.87,5.91,5.90,pIC50 (human DGKα [2]): 6.48
"CC[C@@H]1CN(c2nc(=O)n(C)c3ccc(C#N)nc23)[C@@H](C)CN1C(c1ccc(F)cc1)c1cccc(C(F)(F)F)n1 (single isomer, unassigned) [Example 66]",6.96,6.64,7.12,pIC50 (human DGKα [2]): 8.70
"CC(C)c1ccc(CN2C[C@H](C)N(c3nc(=O)n(C)c4ccc(C#N)nc34)C[C@H]2C)cc1 [Example 137, 4-((2S,5R)-4-(4-isopropylbenzyl)-2,5-dimethylpiperazin-1-yl)-1-methyl-2-oxo-1,2-dihydropyrido[3,2-d]pyrimidine-6-carbonitrile]",6.72,7.08,–,"pEC50 [1, 7]: 5.58"
"CC(c1ccc(OC(C)(C)C#N)cc1)N1C[C@H](C)N(c2nc(=O)n(C)c3ccc(C#N)nc23)C[C@H]1C (stereo partly drawn) [Example 376, 4-((2S,5R)-4-(1-(4-((2-cyanopropan-2-yl)oxy)phenyl)ethyl)-2,5-dimethylpiperazin-1-yl)-1-methyl-2-oxo-1,2-dihydropyrido[3,2-d]pyrimidine-6-carbonitrile]",–,–,–,"pEC50 ([1]; human whole blood, anti-CD3 plus anti-CD28 stimulation, 24 hours, read-out: IFN-γ Whole Blood EC50): 7.24; pIC50 (human DGKζ; [8]): 7.01; pIC50 (human DGKα [3]; [9]): 7.52"
"C[C@@H]1CN(c2nc(=O)n(C)c3ccc(C#N)nc23)[C@@H](C)CN1C(c1ccc(Cl)cc1)c1ccc(Cl)cc1 [Example 373, 4-((2 S, 5R)-4-(bis(4-chlorophenyl)methyl)-2,5-dimethylpiperazin-1-yl)-1-methyl-2-oxo-1,2-dihydropyrido[3,2-d]pyrimidine-6-carbonitrile]",–,–,–,"pEC50 ([1]; Homo sapiens, 24 h, human whole blood, anti-CD3 plus anti-CD28 stimulation, 24 hours, read-out: IFN-γ Whole Blood EC50): 6.77; pIC50 (human DGKζ; [8]): 5.59; pIC50 (human DGKα [3]; [9]): 6.07"
"C[C@@H]1CN(c2nc(=O)n(C)c3ccc(C#N)nc23)[C@@H](C)CN1C(c1ccc(F)cc1)c1ccon1 (single isomer, unassigned) [Example 162]",5.94,7.25,5.73,–
"CC[C@@H]1CN(c2nc(=O)n(C)c3ccc(C#N)nc23)[C@@H](C)CN1C(C)c1ccc(OC(F)(F)F)cc1F (single isomer, unassigned) [Example 82]",5.61,5.81,6.28,–
"CC[C@@H]1CN(c2nc(=O)n(C)c3ccc(C#N)nc23)[C@@H](CC)CN1Cc1ccc2c(c1)OC(F)(F)O2 [Example 13, 4-((2S,5R)-4-((2,2-difluorobenzo[d][1,3]dioxol-5-yl)methyl)-2,5-diethylpiperazin-1-yl)-1-methyl-2-oxo-1,2-dihydropyrido[3,2-d]pyrimidine-6-carbonitrile]",6.64,6.15,–,"pEC50 [1, 7]: 5.67"
"C[C@@H]1CN(c2nc(=O)n(C)c3ccc(C#N)nc23)[C@@H](C)CN1Cc1ccc2c(c1)OC(F)(F)O2 [Example 135, 4-((2S,5R)-4-((2,2-difluorobenzo[d][1,3]dioxol-5-yl)methyl)-2,5-dimethylpiperazin-1-yl)-1-methyl-2-oxo-1,2-dihydropyrido[3,2-d]pyrimidine-6-carbonitrile]",5.85,5.35,–,"pEC50 [1, 7]: 4.97"
"CC[C@@H]1CN(c2nc(=O)n(C)c3ccc(C#N)nc23)[C@@H](C)CN1C(c1ccc(F)cc1)c1ccccn1 (single isomer, unassigned) [Example 87]",6.51,7.55,6.36,–
"CC[C@@H]1CN(c2nc(=O)n(C)c3ccc(C#N)nc23)[C@@H](CC)CN1Cc1ccc(OC(F)(F)F)cc1 [Example 22, 4-((2S,5R)-2,5-diethyl-4-(4-(trifluoromethoxy)benzyl)piperazin-1-yl)-1-methyl-2-oxo-1,2-dihydropyrido[3,2-d]pyrimidine-6-carbonitrile]",6.74,8.70,–,"pEC50 [1, 7]: 6.42"
"COC[C@@H]1CN(c2nc(=O)n(C)c3ccc(C#N)nc23)[C@@H](C)CN1C(c1ccc(F)cc1)c1ccc(C(F)(F)F)cn1 (single isomer, unassigned) [Example 179]",7.66,7.09,7.26,–
"C[C@@H]1CN(c2nc(=O)n(C)c3ccc(C#N)nc23)[C@@H](C)CN1Cc1cc(F)c(F)c(F)c1 [Example 130, 4-((2S,5R)-2,5-dimethyl-4-(3,4,5-trifluorobenzyl)piperazin-1-yl)-1-methyl-2-oxo-1,2-dihydropyrido[3,2-d]pyrimidine-6-carbonitrile]",6.02,4.91,–,"pEC50 [1, 7]: 5.39"
"C[C@@H]1CN(c2nc(=O)n(C)c3ccc(C#N)nc23)[C@@H](C)CN1C(c1ccc(F)cc1)c1csc(C(F)(F)F)n1 (single isomer, unassigned) [Example 170]",6.48,5.79,7.02,–
"CC[C@H]1CN(C(C)c2ccc(OCC3CC3)cc2F)[C@H](CC)CN1c1nc(=O)n(C)c2ccc(C#N)nc12 (single isomer, unassigned) [Example 33]",5.23,5.59,5.42,–
"CC[C@H]1CN(C(C)c2ccc(OCC3CC3)cc2F)[C@H](CC)CN1c1nc(=O)n(C)c2ccc(C#N)nc12 (single isomer, unassigned) [Example 32]",7.51,6.30,7.72,–
"CC[C@@H]1CN(c2nc(=O)n(C)c3ccc(C#N)nc23)[C@@H](C)CN1C(C)c1ccc(C(F)(F)F)cc1F (single isomer, unassigned) [Example 58]",7.27,6.57,7.66,–
"C[C@H]1CN(C(c2ccc(F)cc2)c2ccc(C(F)(F)F)cn2)[C@H](CO)CN1c1nc(=O)n(C)c2ccc(C#N)nc12 (single isomer, unassigned) [Example 181]",4.91,5.31,6.14,–

# The next lines start with results.
pIC50 (human DGKζ; [5]),pIC50 (human DGKα [3]; [6]),Structure (SMILES),"pEC50 [1, 4]",other results
6.23,6.92,"CCC(c1ccc(C(F)(F)F)cc1)N1C[C@H](C)N(c2nc(=O)n(C)c3ccc(C#N)nc23)C[C@H]1CC (single isomer, unassigned) [Example 90]",–,pIC50 (human DGKα [2]): 6.85
4.35,5.58,"CC(c1ccc(OC(F)(F)F)cc1)N1C[C@H](C)N(c2nc(=O)n(C)c3ccc(C#N)nc23)C[C@H]1CO (single isomer, unassigned) [Example 184]",4.70,–
7.44,6.77,"CC[C@@H]1CN(c2nc(=O)n(C)c3ccc(C#N)nc23)[C@@H](C)CN1C(c1ccc(F)cc1)c1cnc(C2CC2)s1 (single isomer, unassigned) [Example 103]",7.03,–
5.85,6.08,"CC[C@@H]1CN(c2nc(=O)n(C)c3ccc(C#N)nc23)[C@@H](C)CN1C(C)c1ccc(OCC2CC2)cc1F (single isomer, unassigned) [Example 70]",5.84,–
5.95,6.33,"CCC(c1ccc(OC(F)F)cc1)N1C[C@H](C)N(c2nc(=O)n(C)c3ccc(C#N)nc23)C[C@H]1CC (single isomer, unassigned) [Example 78]",–,"pEC50 [1, 7]: 7.12"
6.02,6.60,"CC[C@@H]1CN(c2nc(=O)n(C)c3ccc(C#N)nc23)[C@@H](C)CN1C(c1ccc(F)cc1)c1ccon1 (single isomer, unassigned) [Example 74]",6.37,–
6.12,6.47,"CC[C@@H]1CN(c2nc(=O)n(C)c3ccc(C#N)nc23)[C@@H](C)CN1C(C)c1ccc(C2CC2)cc1 (single isomer, unassigned) [Example 64]",6.16,–
6.20,6.17,"CC[C@H]1CN(C(C)c2ccc(OCC3CC3)cc2)[C@H](CC)CN1c1nc(=O)n(C)c2ccc(C#N)nc12 (single isomer, unassigned) [Example 24]",6.35,–
6.08,6.01,"COC[C@@H]1CN(c2nc(=O)n(C)c3ccc(C#N)nc23)[C@@H](C)CN1C(C)c1ccc(C(F)(F)F)cc1 (single isomer, unassigned) [Example 175]",5.77,–
5.81,6.09,"CC(c1ccc(F)cc1)N1C[C@H](C)N(c2nc(=O)n(C)c3ccc(C#N)nc23)C[C@H]1C (single isomer, unassigned) [Example 129]",–,"pEC50 [1, 7]: 4.88"
6.32,5.79,"CC[C@@H]1CN(c2nc(=O)n(C)c3ccc(C#N)nc23)[C@@H](C)CN1C(C)c1ccc(OCC2CC2)cc1 (single isomer, unassigned) [Example 68]",–,"pEC50 [1, 7]: 5.72"
6.12,5.88,"CC(c1ccc(C2CC2)cc1)N1C[C@H](C)N(c2nc(=O)n(C)c3ccc(C#N)nc23)C[C@H]1C (single isomer, unassigned) [Example 4]",6.01,–
7.55,7.52,"CC[C@@H]1CN(c2nc(=O)n(C)c3ccc(C#N)nc23)[C@@H](C)CN1C(C)c1ccc(C#N)cc1 (single isomer, unassigned) [Example 60]",7.64,–
